Experimental data as given in ChEMBL document CHEMBL1201862, “PubChem BioAssay data set” (2004).
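Assay format: 96-well plates, 48-hour exposure. The concentration for 50% growth inhibition is given as GI50.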 Activity calls are given as the source filed them. Rule as the data show it: active = GI50 up to about 1.1 µM and inactive = higher.

Columns and labels:
Test in all cases: inhibition of tumour cell growth, NCI panel, 48 h
[1] = test system: SK-OV-3
[2] = test system: BT-549
[3] = test system: HL-60
[4] = test system: SK-MEL-5
[5] = test system: RPMI-8226
[6] = test system: K562
[7] = test system: ACHN
[8] = test system: A549
[9] = test system: PC-3
[10] = test system: M14
[11] = test system: SR
[12] = test system: SNB-75
[13] = test system: U-251
[14] = test system: DU-145
[15] = test system: CCRF-CEM
[16] = test system: SF-539
[17] = test system: KM12
[18] = test system: LOX IMVI
[19] = test system: OVCAR-5
[20] = test system: OVCAR-4

SMILES	GI50 [1]	GI50 [2]	GI50 [3]	GI50 [4]	GI50 [5]	GI50 [6]	GI50 [7]	GI50 [8]	GI50 [9]	GI50 [10]	GI50 [11]	GI50 [12]	GI50 [13]	GI50 [14]	GI50 [15]	GI50 [16]	GI50 [17]	GI50 [18]	GI50 [19]	GI50 [20]
CN1CN(c2ccccc2)C2(CCN(CCCCCCF)CC2)C1=O	> 100 µM (inactive)	3.41 µM (inactive)	> 100 µM (inactive)	38.1 µM (inactive)	> 100 µM (inactive)	> 100 µM (inactive)	31.6 µM (inactive)	57.7 µM (inactive)	> 100 µM (inactive)	73.5 µM (inactive)	> 100 µM (inactive)	> 100 µM (inactive)	97.1 µM (inactive)	44.1 µM (inactive)	37.9 µM (inactive)	28.8 µM (inactive)	> 100 µM (inactive)	> 100 µM (inactive)	35 µM (inactive)	–
CCCCCCCCCCCC(=O)OC[C@H](C[As](=O)(O)O)OC(=O)CCCCCCCCCCC	14.7 µM (inactive)	3.84 µM (inactive)	3.05 µM (inactive)	1.99 µM (inactive)	6.03 µM (inactive)	4.89 µM (inactive)	2.79 µM (inactive)	6.92 µM (inactive)	2.9 µM (inactive)	2.62 µM (inactive)	9.68 µM (inactive)	7.4 µM (inactive)	2.36 µM (inactive)	17.3 µM (inactive)	13.7 µM (inactive)	14.2 µM (inactive)	8.11 µM (inactive)	8.79 µM (inactive)	18.2 µM (inactive)	17.7 µM (inactive)
NC1(c2cc3ccccc3s2)CCCC1	> 100 µM (inactive)	> 100 µM (inactive)	18.3 µM (inactive)	24.1 µM (inactive)	17.7 µM (inactive)	25.2 µM (inactive)	86.5 µM (inactive)	90.6 µM (inactive)	32 µM (inactive)	25.5 µM (inactive)	21.1 µM (inactive)	67.9 µM (inactive)	48 µM (inactive)	> 100 µM (inactive)	16.9 µM (inactive)	18.5 µM (inactive)	43.9 µM (inactive)	36.5 µM (inactive)	> 100 µM (inactive)	42.6 µM (inactive)
c1ccc2c(c1)CCCN1CCc3ccccc3C21 (configuration not stated)	66.5 µM (inactive)	60.1 µM (inactive)	47.1 µM (inactive)	23.3 µM (inactive)	36.2 µM (inactive)	30 µM (inactive)	68.9 µM (inactive)	60.1 µM (inactive)	41 µM (inactive)	26.9 µM (inactive)	58.7 µM (inactive)	98.2 µM (inactive)	51.5 µM (inactive)	> 100 µM (inactive)	49.1 µM (inactive)	24 µM (inactive)	45.6 µM (inactive)	29.6 µM (inactive)	42.2 µM (inactive)	9.46 µM (inactive)
O=S(=O)(O)CCSSCCS(=O)(=O)O	> 1000 µM (inactive)	> 1000 µM (inactive)	> 1000 µM (inactive)	–	> 1000 µM (inactive)	> 1000 µM (inactive)	> 1000 µM (inactive)	> 1000 µM (inactive)	> 1000 µM (inactive)	> 1000 µM (inactive)	> 1000 µM (inactive)	> 1000 µM (inactive)	> 1000 µM (inactive)	> 1000 µM (inactive)	> 1000 µM (inactive)	> 1000 µM (inactive)	> 1000 µM (inactive)	> 1000 µM (inactive)	> 1000 µM (inactive)	> 1000 µM (inactive)
O=C1CC(/C=C/c2ccco2)=C(O)C1=O	21.9 µM (inactive)	8.49 µM (inactive)	33.7 µM (inactive)	13.7 µM (inactive)	13.2 µM (inactive)	12.1 µM (inactive)	15.9 µM (inactive)	23.9 µM (inactive)	10.2 µM (inactive)	14.8 µM (inactive)	6.05 µM (inactive)	16 µM (inactive)	13.6 µM (inactive)	16.2 µM (inactive)	3 µM (inactive)	13.9 µM (inactive)	13.8 µM (inactive)	12.8 µM (inactive)	13.9 µM (inactive)	14.2 µM (inactive)
CCC1(c2ccc(N)cc2)CCC(=O)NC1=O (configuration not stated) [AMINOGLUTETHIMIDE]	1190 µM (inactive)	1660 µM (inactive)	1280 µM (inactive)	2090 µM (inactive)	2490 µM (inactive)	2080 µM (inactive)	2490 µM (inactive)	2880 µM (inactive)	1170 µM (inactive)	2290 µM (inactive)	> 3820 µM (inactive)	1910 µM (inactive)	2050 µM (inactive)	3030 µM (inactive)	665 µM (inactive)	3240 µM (inactive)	2470 µM (inactive)	2770 µM (inactive)	> 4920 µM (inactive)	1970 µM (inactive)
CC(=O)NC1C(OCc2ccccc2)OC(CO)C(O)C1OCC(=O)NC(C)C(=O)NC(CCC(=O)NCCCCCNc1c2ccccc2nc2cccc([N+](=O)[O-])c12)C(N)=O (configuration not stated)	–	< 0.0001 µM (active)	< 0.0001 µM (active)	< 0.0001 µM (active)	< 0.0001 µM (active)	< 0.0001 µM (active)	< 0.0001 µM (active)	< 0.0001 µM (active)	< 0.0001 µM (active)	< 0.0001 µM (active)	0.00217 µM (active)	< 0.0001 µM (active)	< 0.0001 µM (active)	< 0.0001 µM (active)	0.000861 µM (active)	< 0.0001 µM (active)	< 0.0001 µM (active)	0.00169 µM (active)	< 0.0001 µM (active)	0.00074 µM (active)
NC(=O)N/N=C1\CC2C3CC4C2C4C13 (configuration not stated)	> 100 µM (inactive)	> 100 µM (inactive)	> 100 µM (inactive)	> 100 µM (inactive)	> 100 µM (inactive)	> 100 µM (inactive)	> 100 µM (inactive)	> 100 µM (inactive)	> 100 µM (inactive)	> 100 µM (inactive)	> 100 µM (inactive)	> 100 µM (inactive)	> 100 µM (inactive)	> 100 µM (inactive)	> 100 µM (inactive)	> 100 µM (inactive)	> 100 µM (inactive)	> 100 µM (inactive)	> 100 µM (inactive)	91 µM (inactive)
O=c1n(-c2ccccc2)c(=O)n2n1C1C=CC2CCCCCC1	> 100 µM (inactive)	97.3 µM (inactive)	29.4 µM (inactive)	> 100 µM (inactive)	60 µM (inactive)	–	> 100 µM (inactive)	> 100 µM (inactive)	> 100 µM (inactive)	> 100 µM (inactive)	> 100 µM (inactive)	> 100 µM (inactive)	> 100 µM (inactive)	> 100 µM (inactive)	> 100 µM (inactive)	> 100 µM (inactive)	> 100 µM (inactive)	> 100 µM (inactive)	> 100 µM (inactive)	> 100 µM (inactive)
CC1(C)CC(C2=NCCO2)CC(C)(C)N1	> 100 µM (inactive)	> 100 µM (inactive)	> 100 µM (inactive)	> 100 µM (inactive)	> 100 µM (inactive)	> 100 µM (inactive)	> 100 µM (inactive)	> 100 µM (inactive)	> 100 µM (inactive)	> 100 µM (inactive)	> 100 µM (inactive)	> 100 µM (inactive)	> 100 µM (inactive)	> 100 µM (inactive)	> 100 µM (inactive)	> 100 µM (inactive)	–	> 100 µM (inactive)	> 100 µM (inactive)	> 100 µM (inactive)
CSc1ccc(-c2cc(-c3nc4ccccc4[nH]3)nc3[nH]c(-c4nc5ccccc5[nH]4)cc(=O)c23)cc1	> 100 µM (inactive)	85.3 µM (inactive)	> 100 µM (inactive)	–	41.9 µM (inactive)	42 µM (inactive)	29.4 µM (inactive)	> 100 µM (inactive)	> 100 µM (inactive)	82.4 µM (inactive)	> 100 µM (inactive)	56.2 µM (inactive)	93.8 µM (inactive)	> 100 µM (inactive)	73.6 µM (inactive)	> 100 µM (inactive)	60.3 µM (inactive)	42.5 µM (inactive)	> 100 µM (inactive)	82.4 µM (inactive)
O=C1/C(=C/c2cccc([N+](=O)[O-])c2)CCCc2ccccc21	29.4 µM (inactive)	12.5 µM (inactive)	4.94 µM (inactive)	–	11.4 µM (inactive)	3.27 µM (inactive)	13.7 µM (inactive)	19.9 µM (inactive)	11 µM (inactive)	13.8 µM (inactive)	2.86 µM (inactive)	15.1 µM (inactive)	8.71 µM (inactive)	15 µM (inactive)	2.93 µM (inactive)	15.3 µM (inactive)	2.42 µM (inactive)	3.4 µM (inactive)	13.3 µM (inactive)	13.7 µM (inactive)
CCOC(=O)NC(C(F)(F)F)(C(F)(F)F)P(=O)(OC(C)C)OC(C)C	> 100 µM (inactive)	> 100 µM (inactive)	> 100 µM (inactive)	> 100 µM (inactive)	> 100 µM (inactive)	> 100 µM (inactive)	> 100 µM (inactive)	> 100 µM (inactive)	> 100 µM (inactive)	–	> 100 µM (inactive)	> 100 µM (inactive)	> 100 µM (inactive)	> 100 µM (inactive)	> 100 µM (inactive)	> 100 µM (inactive)	> 100 µM (inactive)	> 100 µM (inactive)	> 100 µM (inactive)	> 100 µM (inactive)
